Test results: US20250129103A1, “METHODS FOR TREATMENT OF CANCER” (Frontier Medicines Corporation, priority 2022, published 2025)
≈ marks a conversion by molar mass, not a printed value. Blank lines part the entries; values can stand above or below the molecule they belong to.

Assays:
[1] = target: KRAS G12C (GMPPNP-loaded) and cRAF (Ras-binding domain) interaction (Homo sapiens (Human), UniProt P01116, C118S/C51S/C80L/G12C); test: Inhibition of KRAS G12C and cRAF binding (AlphaScreen); conditions: KRAS G12C loaded with GMPPNP, cRaf RBD, 2 hours preincubation; read-out: Raf-1 RBD K-Ras IC50
In short: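 AlphaScreen readout (680 nm excitation, 570 nm emission) of RBD binding after a 60-90 min bead step at room temperature. This step follows 2 h compound exposure of GMPPNP-preloaded KRAS G12C in Hepes pH 7.4 buffer with MgCl2 and 10 μM GMPPNP.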

[2] = Determination of logD (1-octanol / phosphate buffer pH 7.4); type: physicochemical; conditions: for logD: 1-octanol/phosphate buffer, pH 7.4, pH 7.4, 1-octanol/phosphate buffer, read-out: Log D, pH 7.4
In short: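 Each phase analysed by LCMS after 1 h shaking at 800 rpm and centrifugation, room temperature. Phases were mutually saturated 1-octanol and 100 mM phosphate buffer at pH 7.4. LogD derived from the phase concentrations.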

[3] = Determination of kinetic solubility (pH 7.4); type: physicochemical; conditions: for solubility kinetic at 2 h: phosphate buffer, pH 7.4, aqueous buffer, kinetic from dmso stock, 50 mM phosphate buffer pH 7.4, read-out: Ksol, pH 7.4
In short: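 Solubility taken from filtrate peak areas on a calibration curve (HPLC-UV, LC-MS/MS). Before filtration and centrifugation, compound was shaken for 2 h at room temperature in pH 7.4 50 mM phosphate buffer.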

Chain of KRAS G12C (GMPPNP-loaded) and cRAF (Ras-binding domain) interaction (P01116 other isoform, or with tags, fused parts or gaps G12C/C51S/C80L/C118S): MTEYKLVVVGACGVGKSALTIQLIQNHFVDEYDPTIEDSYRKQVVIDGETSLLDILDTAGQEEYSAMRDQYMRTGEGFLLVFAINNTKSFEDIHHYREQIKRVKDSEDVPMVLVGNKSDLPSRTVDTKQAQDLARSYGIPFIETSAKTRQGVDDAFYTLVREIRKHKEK

SMILES: Cn1cnc(/C=C/C(=O)N2CCN(c3nc(OCC45CCCN4CCC5)nc4c3CCN(c3cccc5cccc(Cl)c35)C4)C[C@@H]2CC#N)c1 [Compound 22]
IC50 [1]: > 500 nM | logD [2]: 2.92 | solubility kinetic at 2 h [3]: 77.7 µg/mL (≈ 112 µM)

SMILES: Cc1noc(/C=C/C(=O)N2CCN(c3nc(OCC45CCCN4CCC5)nc4c(F)c(-c5cccc6cccc(Cl)c56)ncc34)C[C@@H]2CC#N)n1 [Example 5, (S,E)-2-(4-(7-(8-chloronaphthalen-1-yl)-8-fluoro-2-((tetrahydro-1H-pyrrolizin-7a(5H)-yl)methoxy)pyrido[4,3-d]pyrimidin-4-yl)-1-(3-(3-methyl-1,2,4-oxadiazol-5-yl)acryloyl)piperazin-2-yl)acetonitrile]
IC50 [1]: 10 to 100 nM | logD [2]: 2.15 | solubility kinetic at 2 h [3]: 161 µg/mL (≈ 227 µM)

SMILES: Cc1noc(/C=C/C(=O)N2CCN(c3nc(OCC45CCCN4CCC5)nc4c3CCN(c3cccc5cccc(Cl)c35)C4)C[C@@H]2CC#N)n1 [Compound 32]
IC50 [1]: 10 to 100 nM | Log D, pH 7.4 ([2]; pH 7.4, 1-octanol/phosphate buffer): 3.62 | Ksol, pH 7.4 (ug/mL) ([3]; 50 mM phosphate buffer pH 7.4): 79.78 ug/mL

SMILES: C#Cc1c(F)ccc2cccc(-c3ncc4c(N5CCN(C(=O)/C=C/CN6CC7CC(C6)O7)[C@@H](CC#N)C5)nc(OC[C@@]56CCCN5C[C@H](F)C6)nc4c3F)c12 [Compound 256]
IC50 [1]: < 10 nM | logD [2]: 2.71 | solubility kinetic at 2 h [3]: 101 µg/mL (≈ 133 µM)

SMILES: Cn1cc(/C=C/C(=O)N2CCN(c3nc(OCC45CCCN4CCC5)nc4c3CCN(c3cccc5cccc(Cl)c35)C4)C[C@@H]2CC#N)nn1 [Compound 117]
IC50 [1]: > 500 nM | logD [2]: 2.65 | solubility kinetic at 2 h [3]: 112 µg/mL (≈ 161 µM)

SMILES: CCc1c(F)ccc2cccc(-c3ncc4c(N5CCN(C(=O)/C=C/CN6[C@@H]7CC[C@H]6COC7)[C@@H](CC#N)C5)nc(OC[C@@]56CCCN5C[C@H](F)C6)nc4c3F)c12 [Compound 99, 2-((S)-1-((E)-4-((1R,5S)-3-oxa-8-azabicyclo[3.2.1]octan-8-yl)but-2-enoyl)-4-(7-(8-ethyl-7-fluoronaphthalen-1-yl)-8-fluoro-2-(((2R,7aS)-2-fluorotetrahydro-1H-pyrrolizin-7a(5H)-yl)methoxy)pyrido[4,3-d]pyrimidin-4-yl)piperazin-2-yl)acetonitrile]
IC50 [1]: < 10 nM | logD [2]: 3.4 | solubility kinetic at 2 h [3]: 78 µg/mL (≈ 99.8 µM)

SMILES: Cc1nccc(/C=C/C(=O)N2CCN(c3nc(OC[C@@]45CCCN4C[C@H](F)C5)nc4c(F)c(-c5nc(N)cc(C)c5C(F)(F)F)ncc34)C[C@@H]2CC#N)n1 [Compound 145]
IC50 [1]: < 10 nM | logD [2]: 2.11 | solubility kinetic at 2 h [3]: 136 µg/mL (≈ 181 µM)

SMILES: N#CC[C@H]1CN(c2nc(OC[C@@]34CCCN3C[C@H](O)C4)nc3c(F)c(-c4cccc5cccc(Cl)c45)ncc23)CCN1C(=O)/C=C/CN1CCOCC1 [Compound 319]
IC50 [1]: < 10 nM | logD [2]: 1.54 | solubility kinetic at 2 h [3]: 123 µg/mL (≈ 166 µM)

SMILES: N#CC[C@H]1CN(c2nc(OC[C@@]34CCCN3C[C@H](F)C4)nc3c(F)c(-c4cccc(F)c4C(F)(F)F)ncc23)CCN1C(=O)/C=C/CN1[C@@H]2CC[C@H]1COC2 [Compound 292]
IC50 [1]: < 10 nM | logD [2]: 2.54 | solubility kinetic at 2 h [3]: 112 µg/mL (≈ 145 µM)

SMILES: N#CC[C@H]1CN(c2nc(OC[C@@]34CCCN3C[C@H](F)C4)nc3c(F)c(-c4cccc(Cl)c4C4CC4)ncc23)CCN1C(=O)/C=C/CN1CCCOCC1 [Compound 112, 2-((S)-1-((E)-4-(1,4-oxazepan-4-yl)but-2-enoyl)-4-(7-(3-chloro-2-cyclopropylphenyl)-8-fluoro-2-(((2R,7aS)-2-fluorotetrahydro-1H-pyrrolizin-7a(5H)-yl)methoxy)pyrido[4,3-d]pyrimidin-4-yl)piperazin-2-yl)acetonitrile]
IC50 [1]: < 10 nM | logD [2]: 3.28 | solubility kinetic at 2 h [3]: 52.4 µg/mL (≈ 70.1 µM)

SMILES: Cc1c(Cl)cccc1-c1ncc2c(N3CCN(C(=O)/C=C/CN4[C@@H]5CC[C@H]4COC5)[C@@H](CC#N)C3)nc(OC[C@@]34CCCN3C[C@H](F)C4)nc2c1F [Compound 273]
IC50 [1]: < 10 nM | logD [2]: 3.1 | solubility kinetic at 2 h [3]: 124 µg/mL (≈ 169 µM)

SMILES: CCc1c(F)ccc2cccc(-c3ncc4c(N5CCN(C(=O)/C=C/CN6CC7CC(C6)O7)[C@@H](CC#N)C5)nc(OC[C@@]56CCCN5C[C@H](F)C6)nc4c3F)c12 [Compound 242]
IC50 [1]: < 10 nM | logD [2]: 3.38 | solubility kinetic at 2 h [3]: 93.3 µg/mL (≈ 122 µM)

SMILES: Cc1c(F)ccc2cccc(-c3ncc4c(N5CCN(C(=O)/C=C/CN6CC7CC(C6)O7)[C@@H](CC#N)C5)nc(OC[C@@]56CCCN5C[C@H](F)C6)nc4c3F)c12 [Compound 247]
IC50 [1]: < 10 nM | logD [2]: 3.02 | solubility kinetic at 2 h [3]: 88.6 µg/mL (≈ 118 µM)

SMILES: N#CC[C@H]1CN(c2nc(OC[C@@]34CCCN3C[C@H](F)C4)nc3c(F)c(-c4cccc(Cl)c4C(F)(F)F)ncc23)CCN1C(=O)/C=C/CN1CC2CC(C1)O2 [Compound 295]
IC50 [1]: < 10 nM | logD [2]: 2.75 | solubility kinetic at 2 h [3]: 102 µg/mL (≈ 132 µM)

SMILES: C[C@H]1CN(C/C=C/C(=O)N2CCN(c3nc(OC[C@@]45CCCN4C[C@H](F)C5)nc4c(F)c(-c5cccc(Cl)c5C(F)(F)F)ncc34)C[C@@H]2CC#N)C[C@H](C)O1 [Compound 308]
IC50 [1]: 10 to 100 nM | logD [2]: 3.75 | solubility kinetic at 2 h [3]: 80.5 µg/mL (≈ 102 µM)

Results, then the molecule that gave them:

IC50 [1]: < 10 nM | logD [2]: 3.68 | solubility kinetic at 2 h [3]: 34.8 µg/mL (≈ 46.9 µM)
SMILES: N#CC[C@H]1CN(c2nc(OC[C@@]34CCCN3C[C@H](F)C4)nc3c(F)c(-c4cccc5cccc(F)c45)ncc23)CCN1C(=O)/C=C/CN1CCSCC1 [Compound 232]

IC50 [1]: > 500 nM | logD [2]: 2.48 | solubility kinetic at 2 h [3]: 89.8 µg/mL (≈ 130 µM)
SMILES: Cn1cnc(/C=C/C(=O)N2CCN(c3nc(OCC45CCCN4CCC5)nc4c3CCN(c3cccc5cccc(Cl)c35)C4)C[C@@H]2CC#N)n1 [Compound 21]

IC50 [1]: 100 to 500 nM | logD [2]: 2.54 | solubility kinetic at 2 h [3]: 128 µg/mL (≈ 175 µM)
SMILES: CN1CC[C@@H]1/C=C/C(=O)N1CCN(c2nc(OC[C@@]34CCCN3C[C@H](F)C4)nc3c(F)c(-c4cccc(Cl)c4C(F)(F)F)ncc23)C[C@@H]1CC#N [Compound 311]

IC50 [1]: 10 to 100 nM | logD [2]: 2.72 | solubility kinetic at 2 h [3]: 86.4 µg/mL (≈ 117 µM)
SMILES: N#CC[C@H]1CN(c2nc(OCC34CCCN3CCC4)nc3c2CCN(c2cccc4cccc(Cl)c24)C3)CCN1C(=O)/C=C/c1nc(C2COC2)no1 [Example 6, (S,E)-2-(4-(7-(8-chloronaphthalen-1-yl)-2-((tetrahydro-1H-pyrrolizin-7a(5H)-yl)methoxy)-5,6,7,8-tetrahydropyrido[3,4-d]pyrimidin-4-yl)-1-(3-(3-(oxetan-3-yl)-1,2,4-oxadiazol-5-yl)acryloyl)piperazin-2-yl)acetonitrile]

IC50 [1]: 100 to 500 nM | logD [2]: 2.71 | solubility kinetic at 2 h [3]: 74.5 µg/mL (≈ 104 µM)
SMILES: Cc1cc(N)nc([C@H]2Cc3nc(OC[C@@]45CCCN4C[C@H](F)C5)nc(N4CCN(C(=O)/C=C/CN(C)C)[C@@H](CC#N)C4)c3C[C@@H]2C)c1C(F)(F)F [Compound 323]

IC50 [1]: 10 to 100 nM | logD [2]: 2.79 | solubility kinetic at 2 h [3]: 141 µg/mL (≈ 182 µM)
SMILES: CO[C@H]1CCN(C/C=C/C(=O)N2CCN(c3nc(OC[C@@]45CCCN4C[C@H](F)C5)nc4c(F)c(-c5cccc(Cl)c5C(F)(F)F)ncc34)C[C@@H]2CC#N)C1 [Compound 309]

IC50 [1]: < 10 nM | logD [2]: 2.52 | solubility kinetic at 2 h [3]: 103 µg/mL (≈ 138 µM)
SMILES: N#CC[C@H]1CN(c2nc(OCC34CCCN3CCC4)nc3c(F)c(-c4cccc5cccc(Cl)c45)ncc23)CCN1C(=O)/C=C/c1nc(C(F)F)no1 [Compound 27]

IC50 [1]: 100 to 500 nM | logD [2]: 5.11 | solubility kinetic at 2 h [3]: 0.01 µg/mL (≈ 0.013 µM)
SMILES: CC(C)(C)c1noc(/C=C/C(=O)N2CCN(c3nc(OC[C@@]45CCCN4C[C@H](F)C5)nc4c(F)c(-c5cccc6cccc(Cl)c56)ncc34)C[C@@H]2CC#N)n1 [Compound 34]

IC50 [1]: < 10 nM | logD [2]: 1.44 | solubility kinetic at 2 h [3]: 119 µg/mL (≈ 158 µM)
SMILES: N#CC[C@H]1CN(c2nc(OCC34CCCN3CCC4)nc3c(F)c(-c4cccc5ccc(F)c(Cl)c45)ncc23)CCN1C(=O)/C=C/CN1C[C@@H]2C[C@H]1CO2 [Compound 182]

IC50 [1]: < 10 nM | logD [2]: 2.06 | solubility kinetic at 2 h [3]: 95.1 µg/mL (≈ 131 µM)
SMILES: N#CC[C@H]1CN(c2nc(OCC34CCCN3CCC4)nc3c2CCN(c2cccc4cccc(Cl)c24)C3)CCN1C(=O)/C=C/CN1C[C@@H]2C[C@H]1CO2 [Compound 62]

IC50 [1]: < 10 nM | logD [2]: 2.54 | solubility kinetic at 2 h [3]: 96.7 µg/mL (≈ 125 µM)
SMILES: N#CC[C@H]1CN(c2nc(OC[C@@]34CCCN3C[C@H](F)C4)nc3c(F)c(-c4cccc(Cl)c4C(F)(F)F)ncc23)CCN1C(=O)/C=C/CN1C[C@@H]2C[C@H]1CO2 [Compound 293]

IC50 [1]: 10 to 100 nM | logD [2]: 3.42 | solubility kinetic at 2 h [3]: 94.6 µg/mL (≈ 123 µM)
SMILES: Cc1cc(N)nc(-c2ncc3c(N4CCN(C(=O)/C=C/c5nc(C(C)C)no5)[C@@H](CC#N)C4)nc(OC[C@@]45CCCN4C[C@H](F)C5)nc3c2F)c1C(F)(F)F [Compound 135]

IC50 [1]: 10 to 100 nM | logD [2]: 3.5 | solubility kinetic at 2 h [3]: 128 µg/mL (≈ 163 µM)
SMILES: C[C@@H]1CN(C/C=C/C(=O)N2CCN(c3nc(OC[C@@]45CCCN4C[C@H](F)C5)nc4c(F)c(-c5cccc(Cl)c5C(F)(F)F)ncc34)C[C@@H]2CC#N)C[C@H](C)O1 [Compound 306]

IC50 [1]: < 10 nM | logD [2]: 3.23 | solubility kinetic at 2 h [3]: 114 µg/mL (≈ 152 µM)
SMILES: CO[C@H]1CCN(C/C=C/C(=O)N2CCN(c3nc(OC[C@@]45CCCN4C[C@H](F)C5)nc4c(F)c(-c5cccc(Cl)c5C5CC5)ncc34)C[C@@H]2CC#N)C1 [Compound 287]

IC50 [1]: > 500 nM | logD [2]: 2.84 | solubility kinetic at 2 h [3]: 74.7 µg/mL (≈ 108 µM)
SMILES: Cc1nnc(/C=C/C(=O)N2CCN(c3nc(OCC45CCCN4CCC5)nc4c3CCN(c3cccc5cccc(Cl)c35)C4)C[C@@H]2CC#N)[nH]1 [Compound 29]
